± gives the expanded uncertainty stated by the source. Values belong to the compound of their own block, whether it stands above or below them.
Assay: Solid-liquid equilibrium temperature
Conditions: Crystal, visual observation

Solid-liquid equilibrium temperature (100 kPa): 315.7 ± 0.7 K | Solid-liquid equilibrium temperature (19800 kPa): 320.6 ± 0.7 K | Solid-liquid equilibrium temperature (39500 kPa): 324.8 ± 0.7 K | Solid-liquid equilibrium temperature (59800 kPa): 329.2 ± 0.7 K | Solid-liquid equilibrium temperature (78000 kPa): 333.7 ± 0.7 K
SMILES: CCCCCCCCCCCCCCCCCCCC1CCCCC1 [nonadecylcyclohexane]

Solid-liquid equilibrium temperature (100 kPa): 314.3 ± 1.1 K | Solid-liquid equilibrium temperature (20000 kPa): 319.3 ± 1.1 K | Solid-liquid equilibrium temperature (39900 kPa): 324.2 ± 1.1 K | Solid-liquid equilibrium temperature (59600 kPa): 328.8 ± 1.1 K
SMILES: CCCCCCCCCCCCCCCCCCC1CCCCC1 [octadecylcyclohexane]

Solid-liquid equilibrium temperature (100 kPa): 297.2 ± 0.9 K | Solid-liquid equilibrium temperature (20000 kPa): 302.2 ± 0.9 K | Solid-liquid equilibrium temperature (39900 kPa): 307 ± 0.9 K | Solid-liquid equilibrium temperature (60000 kPa): 311.5 ± 0.9 K | Solid-liquid equilibrium temperature (79900 kPa): 316 ± 0.9 K | Solid-liquid equilibrium temperature (100100 kPa): 320.3 ± 1 K
SMILES: CCCCCCCCCCCCCCC1CCCCC1 [tetradecylcyclohexane]

Solid-liquid equilibrium temperature (100 kPa): 272.4 ± 0.8 K | Solid-liquid equilibrium temperature (20000 kPa): 276.8 ± 0.8 K | Solid-liquid equilibrium temperature (40000 kPa): 281.3 ± 0.8 K | Solid-liquid equilibrium temperature (60000 kPa): 285.7 ± 0.9 K | Solid-liquid equilibrium temperature (80500 kPa): 289.9 ± 0.9 K | Solid-liquid equilibrium temperature (100000 kPa): 293.9 ± 0.9 K
SMILES: CCCCCCCCCCCC1CCCCC1 [undecane, 1-cyclohexyl-]

Continued, compound first:

SMILES: CCCCCCCCCCCCCCCC1CCCCC1 [cyclohexane, pentadecyl-]
Solid-liquid equilibrium temperature (100 kPa): 298.1 ± 1.1 K | Solid-liquid equilibrium temperature (19300 kPa): 302.6 ± 1.1 K | Solid-liquid equilibrium temperature (40000 kPa): 307.6 ± 1.1 K | Solid-liquid equilibrium temperature (60100 kPa): 312.3 ± 1.1 K | Solid-liquid equilibrium temperature (80300 kPa): 316.8 ± 1.1 K | Solid-liquid equilibrium temperature (100100 kPa): 320.8 ± 1.1 K

SMILES: CCCCCCCCCCCCCC1CCCCC1 [cyclohexane, tridecyl-]
Solid-liquid equilibrium temperature (100 kPa): 286.9 ± 1.1 K | Solid-liquid equilibrium temperature (20000 kPa): 291.7 ± 1.1 K | Solid-liquid equilibrium temperature (40200 kPa): 296.3 ± 1.1 K | Solid-liquid equilibrium temperature (60000 kPa): 300.7 ± 1.1 K | Solid-liquid equilibrium temperature (80100 kPa): 304.9 ± 1.1 K | Solid-liquid equilibrium temperature (100000 kPa): 309.1 ± 1.1 K

SMILES: CCCCCCCCCCC1CCCCC1 [decylcyclohexane]
Solid-liquid equilibrium temperature (100 kPa): 271.3 ± 0.5 K | Solid-liquid equilibrium temperature (20000 kPa): 276 ± 0.5 K | Solid-liquid equilibrium temperature (40100 kPa): 280.5 ± 0.6 K | Solid-liquid equilibrium temperature (59900 kPa): 284.8 ± 0.6 K | Solid-liquid equilibrium temperature (80100 kPa): 289.2 ± 0.6 K | Solid-liquid equilibrium temperature (100100 kPa): 293.9 ± 0.6 K

SMILES: CCCCCCCCCCCCC1CCCCC1 [dodecylcyclohexane]
Solid-liquid equilibrium temperature (100 kPa): 285.8 ± 0.5 K | Solid-liquid equilibrium temperature (19500 kPa): 290.6 ± 0.6 K | Solid-liquid equilibrium temperature (39600 kPa): 295.2 ± 0.6 K | Solid-liquid equilibrium temperature (60900 kPa): 299.9 ± 0.6 K | Solid-liquid equilibrium temperature (79900 kPa): 304.2 ± 0.6 K | Solid-liquid equilibrium temperature (100000 kPa): 308.4 ± 0.6 K
